# Data published in US6905841B2, “Enzymatic substrates for detecting Pseudomonas aeruginas” (Biomerieux S.A., priority 1999, dated 2005).
# Like-named read-outs stand apart in the source and are kept apart here.
# What was measured:
# β-alanine aminopeptidase [1] = settings: Enterobacter cloacae; 2 strains tested; read after 22 to 24 hours
# β-alanine aminopeptidase [2] = settings: Proteus mirabilis; 2 strains tested; read after 22 to 24 hours
# β-alanine aminopeptidase [3] = settings: Providencia stuartii; 1 strain tested; read after 22 to 24 hours
# β-alanine aminopeptidase [4] = settings: Serratia marcescens; 3 strains tested; read after 22 to 24 hours
# β-alanine aminopeptidase [5] = settings: Klebsiella pneumoniae; 3 strains tested; read after 22 to 24 hours
# β-alanine aminopeptidase [6] = settings: Acinetobacter baumannii; 2 strains tested; read after 22 to 24 hours
# β-alanine aminopeptidase [7] = settings: Brevundimonas diminuta; 2 strains tested; read after 22 to 24 hours
# β-alanine aminopeptidase [8] = settings: Burkholderia vesicularis; 1 strain tested; read after 22 to 24 hours
# β-alanine aminopeptidase [9] = settings: Chryseobacterium meningosepticum; 2 strains tested; read after 22 to 24 hours
# β-alanine aminopeptidase [10] = settings: Pseudomonas putida; 1 strain tested; read after 22 to 24 hours
# β-alanine aminopeptidase [11] = settings: Pseudomonas stutzeri; 3 strains tested; read after 22 to 24 hours
# β-alanine aminopeptidase [12] = settings: Ralstonia pickettii; 1 strain tested; read after 22 to 24 hours
# β-alanine aminopeptidase [13] = settings: Shewanella algae; 1 strain tested; read after 22 to 24 hours
# β-alanine aminopeptidase [14] = settings: Enterococcus faecium; 2 strains tested; read after 22 to 24 hours
# β-alanine aminopeptidase [15] = experiment: APIZYM-type test strips with β-alanyl-β-naphthylamide; format: cell-based; settings: Shigella spp.; 4 strains
# β-alanine aminopeptidase [16] = experiment: as above; format: cell-based; settings: Salmonella choleraesuis; five strains
# β-alanine aminopeptidase [17] = experiment: as above; format: cell-based; settings: Salmonella spp.; five strains
# β-alanine aminopeptidase [18] = experiment: as above; format: cell-based; settings: Citrobacter freundii; five strains
# β-alanine aminopeptidase [19] = experiment: as above; format: cell-based; settings: Klebsiella pneumoniae, spp. oxytoca; five strains
# β-alanine aminopeptidase [20] = experiment: as above; format: cell-based; settings: Klebsiella ozaenae; five strains
# β-alanine aminopeptidase [21] = experiment: as above; format: cell-based; settings: Klebsiella rhinoscleromatis; 3 strains
# β-alanine aminopeptidase [22] = experiment: as above; format: cell-based; settings: Serratia odorifera; five strains
# β-alanine aminopeptidase [23] = experiment: as above; format: cell-based; settings: Proteus rettgeri; five strains
# β-alanine aminopeptidase [24] = format: cell-based; settings: Yersinia pseudotuberculosis; five strains
# β-alanine aminopeptidase [25] = experiment: APIZYM-type test strips with β-alanyl-β-naphthylamide; format: cell-based; settings: Pseudomonas alcaligenes; five strains
# β-alanine aminopeptidase [26] = experiment: as above; format: cell-based; settings: Shewanella putrefaciens; five strains
# β-alanine aminopeptidase [27] = experiment: as above; format: cell-based; settings: Stenotrophomonas maltophilia; five strains
# β-alanine aminopeptidase [28] = experiment: as above; format: cell-based; settings: Brevundimonas vesicularis; five strains
# β-alanine aminopeptidase [29] = experiment: as above; format: cell-based; settings: Ralstonia picketti; five strains
# β-alanine aminopeptidase [30] = experiment: as above; format: cell-based; settings: Bordetella bronchiseptica; five strains
# β-alanine aminopeptidase [31] = experiment: as above; format: cell-based; settings: Oligella ureolytica; 2 strains
# β-alanine aminopeptidase [32] = experiment: as above; format: cell-based; settings: CDC IV C2; five strains
# β-alanine aminopeptidase [33] = experiment: as above; format: cell-based; settings: Vibrio parahaemolyticus; 4 strains
# β-alanine aminopeptidase [34] = experiment: as above; format: cell-based; settings: Moraxella paraphenylpyruvica; 3 strains
# β-alanine aminopeptidase [35] = experiment: as above; format: cell-based; settings: Actinobacillus spp.; five strains
# β-alanine aminopeptidase [36] = experiment: as above; format: cell-based; settings: Pseudomonas fluorescens; five strains
compound,measurement,setting,value
NCCC(=O)c1c(N)cc(Cl)c(O)c1Cl,Number of negative results,β-alanine aminopeptidase [1],2
same,Number positive results,β-alanine aminopeptidase [1],0
same,Number of negative results,β-alanine aminopeptidase [2],2
same,Number positive results,β-alanine aminopeptidase [2],0
same,Number of negative results,β-alanine aminopeptidase [3],1
same,Number positive results,β-alanine aminopeptidase [3],0
same,Number of negative results,β-alanine aminopeptidase [4],0
same,Number positive results,β-alanine aminopeptidase [4],3
same,Number of negative results,β-alanine aminopeptidase [5],3
same,Number positive results,β-alanine aminopeptidase [5],0
same,Number of negative results,β-alanine aminopeptidase [6],2
same,Number positive results,β-alanine aminopeptidase [6],0
same,Number of negative results,β-alanine aminopeptidase [7],2
same,Number positive results,β-alanine aminopeptidase [7],0
same,Number of negative results,β-alanine aminopeptidase [8],1
same,Number positive results,β-alanine aminopeptidase [8],0
same,Number of negative results,β-alanine aminopeptidase [9],2
same,Number positive results,β-alanine aminopeptidase [9],0
same,Number of negative results,β-alanine aminopeptidase [10],1
same,Number positive results,β-alanine aminopeptidase [10],0
same,Number of negative results,β-alanine aminopeptidase [11],3
same,Number positive results,β-alanine aminopeptidase [11],0
same,Number of negative results,β-alanine aminopeptidase [12],1
same,Number positive results,β-alanine aminopeptidase [12],0
same,Number of negative results,β-alanine aminopeptidase [13],1
same,Number positive results,β-alanine aminopeptidase [13],0
same,Number of negative results,β-alanine aminopeptidase [14],2
same,Number positive results,β-alanine aminopeptidase [14],0
β-alanyl-β-naphthylamide,"β-alanine aminopeptidase activity, result",β-alanine aminopeptidase [15],negative
same,"β-alanine aminopeptidase activity, result",β-alanine aminopeptidase [16],negative
same,"β-alanine aminopeptidase activity, result",β-alanine aminopeptidase [17],negative
same,"β-alanine aminopeptidase activity, result",β-alanine aminopeptidase [18],negative
same,"β-alanine aminopeptidase activity, result",β-alanine aminopeptidase [19],negative
same,"β-alanine aminopeptidase activity, result",β-alanine aminopeptidase [20],negative
same,"β-alanine aminopeptidase activity, result",β-alanine aminopeptidase [21],negative
same,"β-alanine aminopeptidase activity, result",β-alanine aminopeptidase [22],negative
same,"β-alanine aminopeptidase activity, result",β-alanine aminopeptidase [23],negative
same,"β-alanine aminopeptidase activity, result",β-alanine aminopeptidase [24],negative
same,"β-alanine aminopeptidase activity, result",β-alanine aminopeptidase [25],negative
same,"β-alanine aminopeptidase activity, result",β-alanine aminopeptidase [26],negative
same,"β-alanine aminopeptidase activity, result",β-alanine aminopeptidase [27],negative
same,"β-alanine aminopeptidase activity, result",β-alanine aminopeptidase [28],negative
same,"β-alanine aminopeptidase activity, result",β-alanine aminopeptidase [29],negative
same,"β-alanine aminopeptidase activity, result",β-alanine aminopeptidase [30],negative
same,"β-alanine aminopeptidase activity, result",β-alanine aminopeptidase [31],negative
same,"β-alanine aminopeptidase activity, result",β-alanine aminopeptidase [32],negative
same,"β-alanine aminopeptidase activity, result",β-alanine aminopeptidase [33],negative
same,"β-alanine aminopeptidase activity, result",β-alanine aminopeptidase [34],negative
same,"β-alanine aminopeptidase activity, result",β-alanine aminopeptidase [35],negative
same,"β-alanine aminopeptidase activity, result",β-alanine aminopeptidase [36],positive
